This note sets out measurements from patent US20250019387A1 (Frontier Medicines Corporation, priority 0001, published 2025).

The assay concerns the target KRAS G12C and cRAF (Ras-binding domain) interaction (Homo sapiens (Human), UniProt P01116, C118S/C51S/C80L/G12C). The assay can be described thus: Inhibition of KRAS G12C and cRAF binding (AlphaScreen). In outline: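 IC50 values come from 4-parameter nonlinear regression of AlphaScreen signal (680 nm excitation, 570 nm emission). Compound plates sat 19-20 h at room temperature before RBD and donor/acceptor beads were added in Hepes pH 7.4 buffer with 150 mM NaCl, 5 mM MgCl2, 2% DMSO for 60-90 min; biotin-AviTag-GST replaced RBD to flag assay-technology interferers.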

Where [1] appears, read: additional exemplary compounds, KRAS G12C and cRAF binding, read-out: RAF1 RBD IC50.
Where [2] appears, read: GMPPNP-loaded KRAS G12C, 19-20 hours incubation with compound, read-out: IC50 (Inhibition of KRAS G12C and cRAF Binding).

Where two headings read alike, the source gives them in different places.

Sequence of KRAS G12C and cRAF (Ras-binding domain) interaction (P01116 other isoform, or with tags, fused parts or gaps G12C/C51S/C80L/C118S): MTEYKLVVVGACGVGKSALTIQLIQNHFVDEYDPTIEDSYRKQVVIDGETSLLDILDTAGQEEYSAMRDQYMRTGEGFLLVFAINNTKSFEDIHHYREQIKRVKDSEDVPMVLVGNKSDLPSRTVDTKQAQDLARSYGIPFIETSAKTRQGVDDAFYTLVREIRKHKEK

What is called IC50 is the point on the concentration scale where inhibition reaches its midpoint. Regarding `C=CC(=O)N1C[C@@H](C)[C@@H](N(C)c2nc(OC[C@@]34CCCN3C[C@H](F)C4)nc3c(F)c(-c4cccc5cccc(Cl)c45)ncc23)C1`, under setting [1], the IC50 was over 500 nM. Turning to `C=CC(=O)CCN(C)c1nc(OC[C@@H]2CCCN2C)nc2c1CCN(c1cccc3ccccc13)C2`, the IC50 under setting [1] was over 500 nM. As for `Cc1nccc(/C=C/C(=O)N2CCC(Nc3nc(OC[C@@]45CCCN4C[C@H](F)C5)nc4c(F)c(-c5cccc6cccc(Cl)c56)ncc34)CC2)n1` [Example 261, (E)-1-(4-((7-(8-chloronaphthalen-1-yl)-8-fluoro-2-(((2R,7aS)-2-fluorotetrahydro-1H-pyrrolizin-7a(5H)-yl)methoxy)pyrido[4,3-d]pyrimidin-4-yl)amino)piperidin-1-yl)-3-(2-methylpyrimidin-4-yl)prop-2-en-1-one], under setting [2], the concentration for half-maximal inhibition (IC50) was over 500 nM. In the case of `C=CC(=O)[C@H](C)CN(C)c1nc(OC[C@@H]2CCCN2C)nc2c1CCN(c1cccc3ccccc13)C2`, the IC50 under setting [1] is over 500 nM. Take `CC(C)N1CC[C@@H]1/C=C/C(=O)N1CC[C@@H](N(C)c2nc(OC[C@@]34CCCN3C[C@H](F)C4)nc3c(F)c(-c4cccc5cccc(Cl)c45)ncc23)C1` [Example 232, (E)-1-((R)-3-((7-(8-chloronaphthalen-1-yl)-8-fluoro-2-(((2R,7aS)-2-fluorotetrahydro-1H-pyrrolizin-7a(5H)-yl)methoxy)pyrido[4,3-d]pyrimidin-4-yl)(methyl)amino)pyrrolidin-1-yl)-3-((R)-1-isopropylazetidin-2-yl)prop-2-en-1-one]: the half-inhibitory concentration (IC50) under setting [2] lay within 10 to 100 nM. In the case of `Cc1nccc(/C=C/C(=O)N2CC(CN(C)c3nc(OC[C@@]45CCCN4C[C@H](F)C5)nc4c3CCN(c3cccc5cccc(Cl)c35)C4)C2)n1` [Example 69, (E)-1-(3-(((7-(8-chloronaphthalen-1-yl)-2-(((2R,7aS)-2-fluorohexahydro-1H-pyrrolizin-7a-yl)methoxy)-5,6,7,8-tetrahydropyrido[3,4-d]pyrimidin-4-yl)(methyl)amino)methyl)azetidin-1-yl)-3-(2-methylpyrimidin-4-yl)prop-2-en-1-one], the IC50 under setting [2] fell in the range of 100 to 500 nM. `CN(c1nc(OC[C@@]23CCCN2C[C@H](F)C3)nc2c1CCN(c1cccc3cccc(Cl)c13)C2)[C@@H]1CCN(C(=O)/C=C/c2ncn(C)n2)C1`: the IC50 under setting [1] was over 500 nM. On the same count and under the same terms, next, `C=CC(=O)N1CC[C@@H](N(C)c2nc(OC[C@]34CCCN3C[C@H](F)C4)nc3c(F)c(-c4cccc5cccc(Cl)c45)ncc23)C1`: 100 to 500 nM; `C=CC(=O)N1CC[C@H]2[C@H]1CCN2c1nc(OCC23CCCN2CCC3)nc2c1CCN(c1cccc3cccc(Cl)c13)C2`: over 500 nM. Regarding `CN1CC(C)(C#CC(=O)N2CC[C@@H](N(C)c3nc(OC[C@@]45CCCN4C[C@H](F)C5)nc4c(F)c(-c5cccc6cccc(Cl)c56)ncc34)C2)C1` [Example 242, 1-((R)-3-((7-(8-chloronaphthalen-1-yl)-8-fluoro-2-(((2R,7aS)-2-fluorohexahydro-1H-pyrrolizin-7a-yl)methoxy)pyrido[4,3-d]pyrimidin-4-yl)(methyl)amino)pyrrolidin-1-yl)-3-(1,3-dimethylazetidin-3-yl)prop-2-yn-1-one], under setting [2], the IC50 is under 10 nM. For `CCN(C/C=C/S(=O)(=O)CCN(C)c1nc(OCC23CCCN2CCC3)nc2c(F)c(-c3cccc4cccc(Cl)c34)ncc12)CCOC`, the IC50 under setting [1] was 10 to 100 nM. As to `CC(C)c1noc(/C=C/C(=O)N2CC[C@@H](N(C)c3nc(OCC45CCCN4CCC5)nc4c(F)c(-c5cccc6ccc(F)c(Cl)c56)ncc34)C2)n1` [Example 85, (R,E)-1-(3-((7-(8-chloro-7-fluoronaphthalen-1-yl)-8-fluoro-2-((hexahydro-1H-pyrrolizin-7a-yl)methoxy)pyrido[4,3-d]pyrimidin-4-yl)(methyl)amino)pyrrolidin-1-yl)-3-(3-isopropyl-1,2,4-oxadiazol-5-yl)prop-2-en-1-one], the IC50 under setting [2] was under 10 nM.

Regarding `C=CC(=O)N1CC(CN(C)c2nc(OC[C@]34CCCN3C[C@H](F)C4)nc3c(F)c(-c4cccc5cccc(Cl)c45)ncc23)C1`, under setting [1], the IC50 is over 500 nM. In the case of `C[C@@H](F)c1noc(/C=C/C(=O)N2CC(CN(C)c3nc(OC[C@@]45CCCN4C[C@H](F)C5)nc4c(F)c(-c5cccc6cccc(Cl)c56)ncc34)C2)n1` [Example 83, (E)-1-(3-(((7-(8-chloronaphthalen-1-yl)-8-fluoro-2-(((2R,7aS)-2-fluorotetrahydro-1H-pyrrolizin-7a(5H)-yl)methoxy)pyrido[4,3-d]pyrimidin-4-yl)(methyl)amino)methyl)azetidin-1-yl)-3-(3-((R)-1-fluoroethyl)-1,2,4-oxadiazol-5-yl)prop-2-en-1-one], the half-maximal inhibitory concentration (IC50) under setting [2] was under 10 nM. With `C=CC(=O)N1C[C@H](N(C)c2nc(OCC34CCCN3CCC4)nc3c2CCN(c2cccc4cccc(Cl)c24)C3)[C@H]1C`, the IC50 under setting [1] is over 500 nM. As to `CN(CC1CN(C(=O)/C=C/[C@H]2CCN2C)C1)c1nc(OC[C@@]23CCCN2C[C@H](F)C3)nc2c(F)c(-c3cccc4ccc(F)c(Cl)c34)ncc12` [Example 221, (E)-1-(3-(((7-(8-chloro-7-fluoronaphthalen-1-yl)-8-fluoro-2-(((2R,7aS)-2-fluorotetrahydro-1H-pyrrolizin-7a(5H)-yl)methoxy)pyrido[4,3-d]pyrimidin-4-yl)(methyl)amino)methyl)azetidin-1-yl)-3-((R)-1-methylazetidin-2-yl)prop-2-en-1-one], under setting [2], the IC50 was under 10 nM.

On to `CCN(CC)C/C=C/S(=O)(=O)CCN(C)c1nc(OCC23CCCN2CCC3)nc2c(F)c(-c3cccc4cccc(Cl)c34)ncc12`, for which the IC50 under setting [1] is under 10 nM.

For `CN(c1nc(OCC23CCCN2CCC3)nc2c(F)c(-c3cccc4cccc(Cl)c34)ncc12)[C@@H]1CCN(C(=O)/C=C/c2ncccn2)C1`, under setting [1], the IC50 was over 500 nM.

On to `C=CC(=O)N(C)CC1CCN1c1nc(OC[C@@]23CCCN2C[C@H](F)C3)nc2c(F)c(-c3cccc4cccc(Cl)c34)ncc12` (stereo partly shown), for which, under setting [1], the IC50 was over 500 nM. As to `CN(CCNC(=O)/C=C/S(C)(=O)=O)c1nc(OC[C@@H]2CCCN2C)nc2c1CCN(c1cccc3cccc(Cl)c13)C2` [Example 23, (S,E)-N-(2-((7-(8-chloronaphthalen-1-yl)-2-((1-methylpyrrolidin-2-yl)methoxy)-5,6,7,8-tetrahydropyrido[3,4-d]pyrimidin-4-yl)(methyl)amino)ethyl)-3-(methylsulfonyl)acrylamide], the IC50 under setting [2] was in the range of 10 to 100 nM. Consider `C=CC(=O)N1C[C@@H](F)[C@H](N(C)c2nc(OC[C@@]34CCCN3C[C@H](F)C4)nc3c(F)c(-c4cccc5cccc(Cl)c45)ncc23)C1`, for which, under setting [1], the half-inhibitory concentration (IC50) is over 500 nM. With `CN(c1nc(OCC23CCCN2CCC3)nc2c1CCN(c1cccc3cccc(Cl)c13)C2)[C@@H]1CCN(C(=O)/C=C/c2nc(C(C)(C)C)no2)C1` [Example 149, (R,E)-3-(3-(tert-butyl)-1,2,4-oxadiazol-5-yl)-1-(3-((7-(8-chloronaphthalen-1-yl)-2-((hexahydro-1H-pyrrolizin-7a-yl)methoxy)-5,6,7,8-tetrahydropyrido[3,4-d]pyrimidin-4-yl)(methyl)amino)pyrrolidin-1-yl)prop-2-en-1-one], the half-inhibitory concentration (IC50) under setting [2] is 10 to 100 nM. Take `C=CC(=O)N1CCC(N(c2nc(OCC34CCCN3CCC4)nc3c(F)c(-c4cccc5cccc(Cl)c45)ncc23)C2CC2)C1` (stereo not shown): under setting [1], the IC50 was over 500 nM. Turning to `C=CC(=O)N1CC[C@@H](Nc2nc(OC[C@@]34CCCN3C[C@H](F)C4)nc3c2CCN(c2cccc4cccc(Cl)c24)C3)C1`, under setting [1], the IC50 is over 500 nM. With `CN(c1nc(OC[C@@]23CCCN2C[C@H](F)C3)nc2c(F)c(-c3cccc4cccc(Cl)c34)ncc12)[C@@H]1CCN(C(=O)C#CC2CCNC2)C1` (stereo partly drawn) [Example 58, 1-((R)-3-((7-(8-chloronaphthalen-1-yl)-8-fluoro-2-(((2R,7aS)-2-fluorohexahydro-1H-pyrrolizin-7a-yl)methoxy)pyrido[4,3-d]pyrimidin-4-yl)(methyl)amino)pyrrolidin-1-yl)-3-(pyrrolidin-3-yl)prop-2-yn-1-one], the IC50 under setting [2] lay within 10 to 100 nM. As to `N#CN1C2CCC1CN(c1nc(OC[C@@]34CCCN3C[C@H](F)C4)nc3c1CCN(c1cccc4cccc(Cl)c14)C3)C2`, the half-maximal inhibitory concentration (IC50) under setting [1] is over 500 nM. Still for that read-out and setting: next, `C=CC(=O)[C@@H]1CC[C@H]1Nc1nc(OC[C@@H]2CCCN2C)nc2c1CCN(c1cccc3ccccc13)C2`: over 500 nM; `CN(c1nc(OCC23CCCN2CCC3)nc2c(F)c(-c3cccc4cccc(Cl)c34)ncc12)[C@@H]1CCN(C#N)C1`: under 10 nM. Regarding `COC(=O)/C=C/C(=O)NCCN(C)c1nc(OC[C@@H]2CCCN2C)nc2c1CCN(c1cccc3ccc(F)c(Cl)c13)C2` [Example 1, methyl(S,E)-4-((2-((7-(8-chloro-7-fluoronaphthalen-1-yl)-2-((1-methylpyrrolidin-2-yl)methoxy)-5,6,7,8-tetrahydropyrido[3,4-d]pyrimidin-4-yl)(methyl)amino)ethyl)amino)-4-oxobut-2-enoate], the IC50 under setting [2] is 10 to 100 nM.

For the compound `Cc1noc(/C=C/C(=O)NCCN(C)c2nc(OCC34CCCN3CCC4)nc3c2CCN(c2cccc4cccc(Cl)c24)C3)n1`, under setting [1], the IC50 fell in the range of 100 to 500 nM.

Regarding `CN(C)C/C=C/C(=O)N1CC[C@@H](N(C)c2nc(OC[C@@H]3CCCN3C)nc3c2CCN(c2cccc4cccc(Cl)c24)C3)C1`, the IC50 under setting [1] was in the range of 100 to 500 nM. On the same count and under the same terms, as for `CN(CCS(=O)(=O)/C=C/CN1CC(F)C1)c1nc(OCC23CCCN2CCC3)nc2c1CCN(c1cccc3cccc(Cl)c13)C2`, the figure is 100 to 500 nM.

Turning to `COC(=O)/C=C/C(=O)N1C[C@@H](N(C)c2nc(OC[C@@H]3CCCN3C)nc3c2CCN(c2cccc4cccc(Cl)c24)C3)C[C@@H]1C` [Example 4, methyl(E)-4-((2S,4S)-4-((7-(8-chloronaphthalen-1-yl)-2-(((S)-1-methylpyrrolidin-2-yl)methoxy)-5,6,7,8-tetrahydropyrido[3,4-d]pyrimidin-4-yl)(methyl)amino)-2-methylpyrrolidin-1-yl)-4-oxobut-2-enoate], the IC50 under setting [2] was over 500 nM. Regarding `C=CS(=O)(=O)CCN(C)c1nc(OCC23CCCN2CCC3)nc2c(F)c(-c3cccc4cccc(Cl)c34)ncc12`, the half-maximal inhibitory concentration (IC50) under setting [1] is under 10 nM.
